Assay results taken from ChEMBL document CHEMBL5291721, “A preclinical secondary pharmacology resource illuminates target-adverse drug reaction associations of marketed drugs” (Nat Commun, 2023).

Columns and labels:
[1] = target: T1, Neuropeptide Y receptor type 2 (Homo sapiens, UniProt P49146)
T1 sequence (P49146 whole entry): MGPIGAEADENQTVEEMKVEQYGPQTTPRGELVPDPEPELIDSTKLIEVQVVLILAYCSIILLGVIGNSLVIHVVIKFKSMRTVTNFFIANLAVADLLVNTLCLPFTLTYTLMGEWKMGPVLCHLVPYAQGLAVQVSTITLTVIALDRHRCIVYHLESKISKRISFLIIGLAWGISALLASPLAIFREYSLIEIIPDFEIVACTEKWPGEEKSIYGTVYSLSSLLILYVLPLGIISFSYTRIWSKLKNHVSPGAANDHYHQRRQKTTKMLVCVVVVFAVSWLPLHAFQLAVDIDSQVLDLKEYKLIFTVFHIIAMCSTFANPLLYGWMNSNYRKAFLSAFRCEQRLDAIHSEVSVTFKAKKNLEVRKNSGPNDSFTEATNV

[2] = target: Neurotensin receptor type 1 (Homo sapiens, UniProt P30989)
[3] = target: T2, Type-2 angiotensin II receptor (Homo sapiens, UniProt P50052); type: functional
T2 sequence (P50052 whole entry): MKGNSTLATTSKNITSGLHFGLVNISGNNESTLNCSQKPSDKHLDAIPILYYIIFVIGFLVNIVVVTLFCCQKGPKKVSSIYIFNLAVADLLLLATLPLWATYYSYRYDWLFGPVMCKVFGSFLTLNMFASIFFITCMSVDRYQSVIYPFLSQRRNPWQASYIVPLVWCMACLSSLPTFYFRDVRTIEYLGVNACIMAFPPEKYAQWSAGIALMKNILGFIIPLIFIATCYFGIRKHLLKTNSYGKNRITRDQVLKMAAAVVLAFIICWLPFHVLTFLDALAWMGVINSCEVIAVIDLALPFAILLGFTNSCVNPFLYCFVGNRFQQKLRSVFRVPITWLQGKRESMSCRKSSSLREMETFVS

[4] = target: 5-hydroxytryptamine receptor 7 (Homo sapiens, UniProt P34969)
[5] = target: T3, Muscarinic acetylcholine receptor M5 (Homo sapiens, UniProt P08912)
T3 sequence (P08912 whole entry): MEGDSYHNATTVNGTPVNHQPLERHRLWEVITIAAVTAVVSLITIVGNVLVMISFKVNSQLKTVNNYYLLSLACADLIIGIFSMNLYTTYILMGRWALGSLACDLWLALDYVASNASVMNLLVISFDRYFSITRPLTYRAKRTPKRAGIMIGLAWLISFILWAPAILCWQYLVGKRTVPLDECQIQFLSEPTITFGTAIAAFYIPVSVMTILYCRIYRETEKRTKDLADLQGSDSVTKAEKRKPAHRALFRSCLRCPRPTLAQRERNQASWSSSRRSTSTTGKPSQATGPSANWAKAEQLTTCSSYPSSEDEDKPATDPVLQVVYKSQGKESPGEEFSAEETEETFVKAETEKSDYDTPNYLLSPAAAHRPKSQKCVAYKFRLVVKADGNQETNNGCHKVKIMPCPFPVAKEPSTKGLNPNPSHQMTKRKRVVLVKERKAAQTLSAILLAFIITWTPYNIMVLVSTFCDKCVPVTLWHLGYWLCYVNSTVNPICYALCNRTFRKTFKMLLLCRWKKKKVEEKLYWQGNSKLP

Glucagon receptor = Glucagon receptor (Homo sapiens, UniProt P47871)
B1 bradykinin receptor = target: T4, B1 bradykinin receptor (Homo sapiens, UniProt P46663)
T4 sequence (P46663 whole entry): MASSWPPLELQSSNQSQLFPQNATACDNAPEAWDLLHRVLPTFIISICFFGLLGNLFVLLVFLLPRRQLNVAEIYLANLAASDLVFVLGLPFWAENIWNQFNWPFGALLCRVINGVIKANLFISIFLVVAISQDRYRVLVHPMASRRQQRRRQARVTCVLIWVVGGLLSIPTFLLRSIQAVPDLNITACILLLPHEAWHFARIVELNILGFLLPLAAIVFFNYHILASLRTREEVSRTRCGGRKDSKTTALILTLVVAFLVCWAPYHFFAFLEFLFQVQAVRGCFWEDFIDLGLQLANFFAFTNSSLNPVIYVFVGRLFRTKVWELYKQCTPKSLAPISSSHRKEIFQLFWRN

D(1A) dopamine receptor = D(1A) dopamine receptor (Homo sapiens, UniProt P21728)
[6] = target: T5, Corticotropin-releasing factor receptor 1 (Homo sapiens, UniProt P34998)
T5 sequence (P34998 whole entry): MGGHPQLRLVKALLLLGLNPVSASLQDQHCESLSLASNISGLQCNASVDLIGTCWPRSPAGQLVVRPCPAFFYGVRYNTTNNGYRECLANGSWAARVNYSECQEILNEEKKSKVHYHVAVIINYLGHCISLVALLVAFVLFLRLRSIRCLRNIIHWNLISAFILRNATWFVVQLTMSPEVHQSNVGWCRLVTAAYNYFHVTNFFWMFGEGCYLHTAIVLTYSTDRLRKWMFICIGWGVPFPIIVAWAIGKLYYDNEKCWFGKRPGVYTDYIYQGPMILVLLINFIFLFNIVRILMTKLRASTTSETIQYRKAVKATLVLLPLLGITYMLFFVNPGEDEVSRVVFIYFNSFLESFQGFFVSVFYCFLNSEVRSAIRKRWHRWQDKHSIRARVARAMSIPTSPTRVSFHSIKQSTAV

[7] = target: 5-hydroxytryptamine receptor 6 (Homo sapiens, UniProt P50406)
[8] = target: T6, Alpha-1A adrenergic receptor (Homo sapiens, UniProt P35348)
T6 sequence (P35348 whole entry): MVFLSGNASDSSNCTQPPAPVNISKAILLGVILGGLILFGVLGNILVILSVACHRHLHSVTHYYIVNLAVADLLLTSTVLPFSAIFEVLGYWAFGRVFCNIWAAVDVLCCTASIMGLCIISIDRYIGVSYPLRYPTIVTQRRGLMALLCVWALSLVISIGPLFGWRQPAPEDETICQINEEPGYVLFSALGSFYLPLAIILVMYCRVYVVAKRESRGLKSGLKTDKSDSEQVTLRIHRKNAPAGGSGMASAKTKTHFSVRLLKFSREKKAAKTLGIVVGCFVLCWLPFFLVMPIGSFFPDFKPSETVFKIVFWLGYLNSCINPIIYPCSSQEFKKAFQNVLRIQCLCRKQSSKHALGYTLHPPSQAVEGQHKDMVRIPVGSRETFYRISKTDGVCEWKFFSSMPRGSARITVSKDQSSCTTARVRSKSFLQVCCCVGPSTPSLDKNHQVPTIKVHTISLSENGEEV

Histamine H2 receptor = Histamine H2 receptor (Homo sapiens, UniProt P25021)
[9] = target: Beta-1 adrenergic receptor (Homo sapiens, UniProt P08588); type: functional, cell-based
Note: assay procedure not described here.

Chain of 5-hydroxytryptamine receptor 7 (P34969 whole entry): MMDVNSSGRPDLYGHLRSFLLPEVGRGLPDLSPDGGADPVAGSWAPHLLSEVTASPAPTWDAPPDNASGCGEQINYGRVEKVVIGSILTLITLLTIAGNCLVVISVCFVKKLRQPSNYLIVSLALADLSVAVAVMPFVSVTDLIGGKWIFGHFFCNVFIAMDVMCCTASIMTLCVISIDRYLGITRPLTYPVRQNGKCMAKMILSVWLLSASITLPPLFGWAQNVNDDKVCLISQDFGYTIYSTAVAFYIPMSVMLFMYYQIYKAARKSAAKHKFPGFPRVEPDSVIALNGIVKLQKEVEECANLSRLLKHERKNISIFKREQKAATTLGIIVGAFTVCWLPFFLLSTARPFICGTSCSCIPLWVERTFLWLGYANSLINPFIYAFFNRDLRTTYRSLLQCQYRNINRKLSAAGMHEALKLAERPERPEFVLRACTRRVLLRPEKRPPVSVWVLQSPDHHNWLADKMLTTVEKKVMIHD
Chain of Glucagon receptor (P47871 whole entry): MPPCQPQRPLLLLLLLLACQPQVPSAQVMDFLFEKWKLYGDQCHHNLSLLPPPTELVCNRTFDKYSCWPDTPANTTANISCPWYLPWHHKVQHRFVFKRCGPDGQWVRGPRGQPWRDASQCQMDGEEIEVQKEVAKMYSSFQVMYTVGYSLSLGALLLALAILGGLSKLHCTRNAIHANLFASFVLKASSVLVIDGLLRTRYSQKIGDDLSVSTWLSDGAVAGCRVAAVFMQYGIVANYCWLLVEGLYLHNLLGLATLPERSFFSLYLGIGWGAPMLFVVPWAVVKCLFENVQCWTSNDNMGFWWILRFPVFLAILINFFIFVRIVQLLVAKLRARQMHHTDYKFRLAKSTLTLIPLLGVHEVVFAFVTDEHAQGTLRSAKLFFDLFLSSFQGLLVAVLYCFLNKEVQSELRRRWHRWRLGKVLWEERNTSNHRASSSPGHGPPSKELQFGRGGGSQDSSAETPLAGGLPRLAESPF
Chain of Histamine H2 receptor (P25021 whole entry): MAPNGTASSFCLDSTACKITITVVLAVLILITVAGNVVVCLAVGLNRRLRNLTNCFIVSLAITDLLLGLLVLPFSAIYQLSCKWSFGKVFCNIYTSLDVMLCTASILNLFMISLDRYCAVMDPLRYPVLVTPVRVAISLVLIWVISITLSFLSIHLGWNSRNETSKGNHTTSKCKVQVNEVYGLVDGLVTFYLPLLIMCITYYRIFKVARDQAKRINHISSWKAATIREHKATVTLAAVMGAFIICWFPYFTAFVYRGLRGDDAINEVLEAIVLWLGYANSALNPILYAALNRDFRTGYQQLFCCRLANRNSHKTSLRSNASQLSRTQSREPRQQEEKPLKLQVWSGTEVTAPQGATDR
Chain of Neurotensin receptor type 1 (P30989 whole entry): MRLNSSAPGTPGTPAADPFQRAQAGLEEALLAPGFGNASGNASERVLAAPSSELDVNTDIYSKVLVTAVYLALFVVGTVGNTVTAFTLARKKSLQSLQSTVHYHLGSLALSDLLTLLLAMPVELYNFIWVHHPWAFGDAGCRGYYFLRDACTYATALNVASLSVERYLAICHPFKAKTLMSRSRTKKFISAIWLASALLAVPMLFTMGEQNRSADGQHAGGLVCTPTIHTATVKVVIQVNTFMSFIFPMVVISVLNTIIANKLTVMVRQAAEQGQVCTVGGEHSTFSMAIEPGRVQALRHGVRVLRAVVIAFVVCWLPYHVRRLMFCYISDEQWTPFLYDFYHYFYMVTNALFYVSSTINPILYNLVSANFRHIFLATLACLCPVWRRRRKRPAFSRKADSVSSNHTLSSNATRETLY
Chain of D(1A) dopamine receptor (P21728 whole entry): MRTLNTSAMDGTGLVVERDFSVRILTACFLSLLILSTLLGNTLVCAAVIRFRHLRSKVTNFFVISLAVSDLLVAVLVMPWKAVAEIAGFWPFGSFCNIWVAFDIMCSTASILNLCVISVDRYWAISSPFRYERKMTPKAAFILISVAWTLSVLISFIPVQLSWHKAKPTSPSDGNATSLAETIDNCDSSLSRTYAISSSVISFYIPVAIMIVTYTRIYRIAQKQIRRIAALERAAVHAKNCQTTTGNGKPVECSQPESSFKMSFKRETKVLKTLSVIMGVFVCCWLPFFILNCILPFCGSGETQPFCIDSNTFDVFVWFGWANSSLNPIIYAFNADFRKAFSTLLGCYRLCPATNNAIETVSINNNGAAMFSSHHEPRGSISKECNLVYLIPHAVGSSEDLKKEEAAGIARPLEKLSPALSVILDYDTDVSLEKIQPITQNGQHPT
Chain of Beta-1 adrenergic receptor (P08588 whole entry): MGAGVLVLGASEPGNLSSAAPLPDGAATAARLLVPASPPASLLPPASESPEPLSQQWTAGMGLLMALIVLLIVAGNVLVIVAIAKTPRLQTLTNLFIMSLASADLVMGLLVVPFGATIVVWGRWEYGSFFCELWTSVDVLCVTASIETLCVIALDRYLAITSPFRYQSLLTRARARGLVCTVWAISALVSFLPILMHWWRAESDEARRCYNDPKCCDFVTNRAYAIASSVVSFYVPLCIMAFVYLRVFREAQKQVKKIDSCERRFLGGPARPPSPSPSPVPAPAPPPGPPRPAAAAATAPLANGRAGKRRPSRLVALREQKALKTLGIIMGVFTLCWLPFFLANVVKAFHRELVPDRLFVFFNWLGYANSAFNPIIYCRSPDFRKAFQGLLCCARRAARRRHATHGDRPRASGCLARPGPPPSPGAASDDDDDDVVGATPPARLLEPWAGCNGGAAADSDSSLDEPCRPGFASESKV
Chain of 5-hydroxytryptamine receptor 6 (P50406 whole entry): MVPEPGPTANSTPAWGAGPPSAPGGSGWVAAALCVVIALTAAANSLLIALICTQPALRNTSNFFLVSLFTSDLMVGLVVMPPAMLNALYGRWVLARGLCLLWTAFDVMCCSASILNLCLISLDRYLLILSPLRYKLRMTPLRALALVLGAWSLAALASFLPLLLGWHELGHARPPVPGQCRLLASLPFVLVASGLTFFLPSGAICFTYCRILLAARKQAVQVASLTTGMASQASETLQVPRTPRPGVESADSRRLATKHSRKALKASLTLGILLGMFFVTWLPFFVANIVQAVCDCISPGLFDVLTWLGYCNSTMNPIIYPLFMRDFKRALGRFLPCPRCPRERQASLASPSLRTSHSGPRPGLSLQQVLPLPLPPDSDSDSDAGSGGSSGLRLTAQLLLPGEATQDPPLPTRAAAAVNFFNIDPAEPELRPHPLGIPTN

SMILES: N=C(N)NC(=O)c1nc(Cl)c(N)nc1N [AMILORIDE]
- AC50 [1]: > 30 µM
- AC50 [2]: > 30 µM
- AC50 [3]: > 100 µM
- AC50 [4]: > 10 µM
- AC50 [5]: > 10 µM
- AC50 (Glucagon receptor): > 30 µM
- AC50 (B1 bradykinin receptor): > 10 µM
- AC50 (D(1A) dopamine receptor): > 10 µM
- AC50 [6]: > 30 µM
- AC50 [7]: > 10 µM
- AC50 [8]: > 10 µM
- AC50 (Histamine H2 receptor): > 10 µM

SMILES: C[C@]12CCC(=O)C=C1C=C[C@@H]1[C@@H]2CC[C@@]2(C)[C@H]1CC[C@@]21CCC(=O)O1 [CANRENONE]
- AC50 [9]: > 30 µM

SMILES: CC(C)(Oc1ccc(Cl)cc1)C(=O)OCCOC(=O)c1cccnc1 [ETOFIBRATE]
- AC50 [9]: > 30 µM

SMILES: CC(C)Cc1ccc(C(C)C(=O)OCc2ccccn2)cc1 (stereo unspecified) [IBUPROFEN PICONOL]
- AC50 [3]: > 100 µM

SMILES: C[C@]12C=CC(=O)C=C1CC[C@@H]1[C@@H]2[C@@H](O)C[C@@]2(C)[C@H]1CC[C@]2(O)C(=O)CO [PREDNISOLONE]
- AC50 [1]: > 30 µM
- AC50 [2]: > 30 µM
- AC50 (Glucagon receptor): > 30 µM
- AC50 (B1 bradykinin receptor): > 30 µM
- AC50 [6]: > 30 µM

SMILES: Cc1ccc(O)c([C@H](CCN(C(C)C)C(C)C)c2ccccc2)c1 [TOLTERODINE]
- AC50 [4]: > 10 µM
- AC50 [5]: 0.0065 µM
- AC50 (D(1A) dopamine receptor): > 10 µM
- AC50 [7]: > 10 µM
- AC50 [8]: > 10 µM
- AC50 (Histamine H2 receptor): 3.2 µM
